7 molecules from patent US11614423B2, “Transformed response potentiometric titrations” (UNIVERSITEIT ANTWERPEN, priority 2014, dated 2023) can be followed below.

The nature of data set [1]: Transformed response potentiometric titration of cocaine (ligand) with titrants. In kind it is binding. The conditions noted are these: for Ka: 1 mM MES buffer pH 7.0, mean of n electrodes.
In data set [2] the test system is Cocaine Binding Aptamer (CBA). Kind of data set: Transformed response potentiometric titration of different ligands with CBA as titrant (cross-reactivity). As to conditions: for Ka: Post-EP method, 10^−5 M ligand in 1 mM MES buffer pH 7, CBA as titrant.

With “25-mer-DNA: randomly chosen non-specific oligonucleotide, likely SEQ ID NO: 2 (DNA AAAATATCATCTTTGGTGTTTCCTA; DNA, backbone and methylation of C not given here)”, the Ka in data set [1] (Post-EP (PEP) method) is 24000 M⁻¹. The “specific interaction with cocaine (in words)” value in data set [1] (comparison of titration curves and Ka values) is on record as “little or no specific interaction”.

Turning to `Clc1ccc([B-](c2ccc(Cl)cc2)(c2ccc(Cl)cc2)c2ccc(Cl)cc2)cc1` [TCPB, tetrakis (4-chlorophenyl)borate], the Ka in data set [1] (Equivalence Point (EP) method) stood at 3e+09 M⁻¹; in data set [1] (Post-EP (PEP) method), 9e+09 M⁻¹.

In data set [2], `CN(Cc1cc(Br)cc(Br)c1N)C1CCCCC1` [bromhexine] returned a Ka of 570000 M⁻¹.

In the case of `CCN(CC)CC(=O)Nc1c(C)cccc1C` [lidocaine], the Ka in data set [2] came to 100000 M⁻¹.

`CN1C[C@H](CNC(=O)OCc2ccccc2)C[C@@H]2c3cccc4c3c(cn4C)C[C@H]21` [metergoline] yielded a Ka in data set [2] of 3.3e+06 M⁻¹. In data set [2] (cross-reactivity compared with cocaine), the “interaction with CBA (in words)” value was “better interaction with metergoline than with cocaine”.

The molecule “CBA: Cocaine Binding Aptamer, sequence SEQ ID NO: 1, 43 bases (DNA ATCTCGGGACGACAGGATTTTCCTCAATGAAGTGGGTCGTCCC; DNA, backbone not given here)” had a Kd in data set [1] (Post-EP method, n=6 electrodes) of 1100 nM.

B1: CAPBA: Chloramphenicol Binding Aptamer, sequence SEQ ID NO: 3 (nucleic acid)
DNA: AGCAGCACAGAGGTCAGATGACTTCAGTGAGTTGTCCCACGGTCGGCGAGTCGGTGGTAGCCTATGCGTGCTACCGTGAA
modifications: DNA, backbone and methylation of C not given here
Molecule B1 displayed a Ka in data set [1] (Post-EP (PEP) method) of 47000 M⁻¹.

As usually defined, the Kd is a measure of binding affinity in units of concentration. A low value points to tighter binding.
